# Measurements taken from ChEMBL document CHEMBL1201862, “PubChem BioAssay data set” (2004).
# Activity calls are given as the source filed them. Rule as the data show it, for most assays here: actives have a measured EC50 and inactives only a lower limit.
# Experiments:
# [1] = biological target: Luciferin 4-monooxygenase (Photinus pyralis, UniProt P08659); experiment: firefly luciferase enzyme inhibitors, dose response, biochemical, luminescence (AID 1891)
# [2] = Luminescence Cell-Based Dose Confirmation HTS to Identify Inhibitors of Platelet Dense Granule Release. [Related pubchem assays: 1663 (Primary HTS), 1678 (Summary of Project)]; type: functional
# [3] = biological target: T1, Heat shock factor protein 1 (Mus musculus, UniProt P38532); experiment: inhibition of MG132-induced HSE-luciferase signal, confirmation, cell-based, NIH3T3, luminescence, dose retest (AID 2382); type: functional;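 also: NIH3T3 fibroblasts with HSF1-driven luciferase reporter stressed by proteasome inhibitor MG132; luminescence from HSF1-driven luciferase expression after 8 hours of MG132 stress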
# T1 sequence (P38532 whole entry): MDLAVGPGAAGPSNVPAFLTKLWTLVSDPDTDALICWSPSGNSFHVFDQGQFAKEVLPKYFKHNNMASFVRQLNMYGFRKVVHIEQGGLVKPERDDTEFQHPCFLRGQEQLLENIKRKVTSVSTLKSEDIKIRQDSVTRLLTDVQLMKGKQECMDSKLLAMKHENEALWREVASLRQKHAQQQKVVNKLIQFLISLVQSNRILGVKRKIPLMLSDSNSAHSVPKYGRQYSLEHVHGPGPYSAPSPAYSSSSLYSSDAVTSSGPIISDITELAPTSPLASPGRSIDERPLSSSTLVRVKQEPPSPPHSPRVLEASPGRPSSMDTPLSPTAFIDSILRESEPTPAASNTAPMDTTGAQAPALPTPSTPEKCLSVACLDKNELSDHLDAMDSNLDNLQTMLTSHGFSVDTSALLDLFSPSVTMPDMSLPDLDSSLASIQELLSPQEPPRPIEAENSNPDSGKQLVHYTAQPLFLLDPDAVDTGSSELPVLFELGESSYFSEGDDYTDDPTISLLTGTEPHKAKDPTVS
# [4] = biological target: T2, Corticotropin-releasing factor receptor 2/Corticotropin-releasing factor-binding protein (Homo sapiens, UniProt P24387+Q13324); experiment: Dose Response confirmation of uHTS hits for small molecule antagonists of the CRF-binding protein and CRF-R2 receptor complex.; type: functional; details: read-out: IC50_Mean
# T2 sequence (Q13324 whole entry): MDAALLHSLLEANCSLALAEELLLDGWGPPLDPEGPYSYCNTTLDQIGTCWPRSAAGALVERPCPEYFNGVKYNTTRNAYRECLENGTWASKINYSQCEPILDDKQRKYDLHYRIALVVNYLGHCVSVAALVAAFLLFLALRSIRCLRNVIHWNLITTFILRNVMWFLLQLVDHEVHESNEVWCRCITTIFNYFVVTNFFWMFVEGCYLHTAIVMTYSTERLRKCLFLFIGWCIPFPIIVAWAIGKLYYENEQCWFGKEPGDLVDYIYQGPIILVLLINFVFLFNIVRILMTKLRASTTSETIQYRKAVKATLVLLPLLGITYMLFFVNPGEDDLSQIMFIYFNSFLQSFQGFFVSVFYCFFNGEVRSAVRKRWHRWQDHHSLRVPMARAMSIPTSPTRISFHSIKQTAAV
# T2 sequence (P24387 whole entry): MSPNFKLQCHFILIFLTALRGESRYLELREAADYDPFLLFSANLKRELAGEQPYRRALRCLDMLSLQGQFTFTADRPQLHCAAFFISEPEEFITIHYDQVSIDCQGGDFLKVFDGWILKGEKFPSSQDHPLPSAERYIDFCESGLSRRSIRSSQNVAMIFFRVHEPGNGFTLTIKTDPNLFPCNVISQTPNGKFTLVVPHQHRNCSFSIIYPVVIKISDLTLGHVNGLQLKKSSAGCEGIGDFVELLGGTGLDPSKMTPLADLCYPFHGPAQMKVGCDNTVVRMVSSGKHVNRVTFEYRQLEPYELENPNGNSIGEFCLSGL
# [5] = biological target: T2, Corticotropin-releasing factor receptor 2/Corticotropin-releasing factor-binding protein; experiment: activators of CRF receptor 2 with binding protein – uHTS hits, confirmation (AID 602473); type: functional; details: read-out: EC50_Mean
# [6] = Luminescence Cell-Based Dose Response HTS to Identify Activators of Luciferase Translation or Activity in H4 […] Cells. [Related pubchem assays: 1829 (Project Summary), 1814 (Primary HTS)]; type: functional
# [7] = Luminescence Cell-Based Dose Response HTS to Identify Inhibitors of 5'UTR Stem-Loop Driven Prion Protein mRNA Translation in H4 Neuroglioblastoma Cells. [Related pubchem assays: 1827 (Project Summary), 1813 (Primary HTS)]; type: functional
# Protein RecA = biological target: T3, Protein RecA (Mycobacterium tuberculosis, UniProt P9WHJ3); experiment: Fluorescence Cell-Free Homogeneous Dose Retest to Identify Inhibitors of RecA-Intein Splicing Activity. [Related pubchem assays (depositor defined):AID2097, AID2223, AID489010, AID492950]; type: functional
# T3 sequence (P9WHJ3 whole entry): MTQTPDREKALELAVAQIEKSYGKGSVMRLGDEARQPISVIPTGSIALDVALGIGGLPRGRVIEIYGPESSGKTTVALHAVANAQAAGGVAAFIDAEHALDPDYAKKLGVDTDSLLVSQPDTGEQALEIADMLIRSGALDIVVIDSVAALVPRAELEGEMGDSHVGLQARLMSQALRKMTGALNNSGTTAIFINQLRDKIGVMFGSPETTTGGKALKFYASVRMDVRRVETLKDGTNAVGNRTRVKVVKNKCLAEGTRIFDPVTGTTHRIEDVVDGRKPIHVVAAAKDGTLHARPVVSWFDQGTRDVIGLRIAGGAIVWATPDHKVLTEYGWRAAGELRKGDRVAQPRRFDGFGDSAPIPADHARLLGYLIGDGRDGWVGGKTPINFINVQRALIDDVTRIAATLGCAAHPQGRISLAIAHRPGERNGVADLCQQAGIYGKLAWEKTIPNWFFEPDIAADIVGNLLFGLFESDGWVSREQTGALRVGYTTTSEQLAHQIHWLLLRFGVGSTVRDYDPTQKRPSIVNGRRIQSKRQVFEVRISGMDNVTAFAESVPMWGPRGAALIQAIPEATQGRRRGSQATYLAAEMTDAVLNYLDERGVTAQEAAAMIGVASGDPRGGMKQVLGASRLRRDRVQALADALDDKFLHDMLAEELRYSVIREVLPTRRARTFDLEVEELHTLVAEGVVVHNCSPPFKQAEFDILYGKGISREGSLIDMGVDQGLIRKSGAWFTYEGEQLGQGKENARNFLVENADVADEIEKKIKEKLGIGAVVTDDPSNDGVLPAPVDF
# [8] = inhibitors of SNCA 5'UTR-driven reporter translation, confirmation, H4 neuroglioma cells, luminescence (AID 1988); type: functional, cell-based
# [9] = biological target: T4, Replicative DNA helicase DnaB (Mycobacterium tuberculosis, UniProt P9WMR3); experiment: DnaB intein splicing inhibitors, dose response, biochemical, cell-free fluorescence (AID 449749); type: functional
# T4 sequence (P9WMR3 whole entry): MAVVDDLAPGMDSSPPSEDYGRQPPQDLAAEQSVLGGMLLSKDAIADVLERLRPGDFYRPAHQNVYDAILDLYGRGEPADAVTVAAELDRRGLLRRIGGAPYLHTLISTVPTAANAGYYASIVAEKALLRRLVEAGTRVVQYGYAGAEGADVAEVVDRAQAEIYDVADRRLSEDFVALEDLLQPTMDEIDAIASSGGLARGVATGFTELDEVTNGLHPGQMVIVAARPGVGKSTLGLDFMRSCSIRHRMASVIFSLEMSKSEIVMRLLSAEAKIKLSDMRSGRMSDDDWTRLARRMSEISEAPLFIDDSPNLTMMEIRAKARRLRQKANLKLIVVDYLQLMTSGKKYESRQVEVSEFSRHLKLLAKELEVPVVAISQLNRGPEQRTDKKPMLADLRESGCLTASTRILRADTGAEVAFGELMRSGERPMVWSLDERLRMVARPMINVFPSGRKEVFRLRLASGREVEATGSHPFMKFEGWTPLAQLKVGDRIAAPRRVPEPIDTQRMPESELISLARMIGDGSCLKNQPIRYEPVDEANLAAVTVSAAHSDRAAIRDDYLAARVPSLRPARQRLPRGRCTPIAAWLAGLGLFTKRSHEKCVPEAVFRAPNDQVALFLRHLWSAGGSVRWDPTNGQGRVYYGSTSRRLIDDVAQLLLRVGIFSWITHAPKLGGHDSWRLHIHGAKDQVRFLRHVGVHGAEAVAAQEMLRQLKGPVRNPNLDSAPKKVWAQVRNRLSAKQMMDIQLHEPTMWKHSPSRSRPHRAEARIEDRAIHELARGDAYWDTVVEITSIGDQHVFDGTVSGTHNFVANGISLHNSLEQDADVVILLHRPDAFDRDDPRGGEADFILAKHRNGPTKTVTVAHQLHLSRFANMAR
# [10] = inhibitors of firefly luciferase expression or activity, dose response, H4 neuroglioma cells, luminescence (AID 1990); type: functional, cell-based
# [11] = tested on: Streptococcus sp. 'group A'; experiment: growth inhibition of control SK(-) GAS strain, dose response, counter-screen for streptokinase expression inhibitor project, luminescence, kanamycin, BacTiterGlo, confirmation (AID 1900); type: functional, organism-based
# Streptococcus = experiment: Group A Streptococcus viability loss, dose response, counter-screen for streptokinase expression inhibitor project, luminescence, BacTiterGlo (AID 1915); type: functional, organism-based;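 also: potency for reduction of bacterial viability or growth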
# H4 = experiment: Luminescence Cell-Based Dose Response HTS to Identify Activators of 5'UTR Stem-Loop Driven Prion Protein mRNA Translation in H4 Neuroglioblastoma Cells. [Related pubchem assays: 1829 (Project Summary), 1814 (Primary HTS)]; type: functional; details: Homo sapiens
# [12] = Luminescence Cell-Based Dose Confirmation HTS to Identify Activators of 5'UTR Stem-Loop Driven Alpha-Synuclein mRNA Translation in H4 Neuroglioblastoma Cells. [Related pubchem assays: 1829 (Project Summary), 1814 (Primary HTS)]; type: functional
# [13] = Shn3 3'UTR reporter inhibitors, dose response, cell-based, Clone20 osteoblasts, firefly luciferase, cherry-picked (AID 624132); type: functional;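 also: firefly luciferase luminescence from reporter carrying the Shn3 3'UTR in osteoblasts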
# [14] = control 3'UTR Renilla luciferase suppression, dose response, counter-screen for Shn3 inhibitor project, cell-based, Clone20-Shn3RL, cherry-picked (AID 624133); type: functional
# [15] = growth suppression of PTEN-null colon cells, dose response, cell-based, HCT116 PTEN knockout (AID 1047); type: functional;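 also: HCT116 colon tumor cells with PTEN knocked out; cells exposed to compound for 60 hours before readout; potency for loss of cell viability measured by luminescence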
# [16] = growth suppression of beta-catenin-knockout colon cells, dose response, cell-based, HCT116, human colon tumor (AID 1045); type: functional;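 also: HCT116 colon tumor cells with beta catenin knocked out; cells exposed to compound for 60 hours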
# Luciferin 4-monooxygenase, sequence (P08659 whole entry): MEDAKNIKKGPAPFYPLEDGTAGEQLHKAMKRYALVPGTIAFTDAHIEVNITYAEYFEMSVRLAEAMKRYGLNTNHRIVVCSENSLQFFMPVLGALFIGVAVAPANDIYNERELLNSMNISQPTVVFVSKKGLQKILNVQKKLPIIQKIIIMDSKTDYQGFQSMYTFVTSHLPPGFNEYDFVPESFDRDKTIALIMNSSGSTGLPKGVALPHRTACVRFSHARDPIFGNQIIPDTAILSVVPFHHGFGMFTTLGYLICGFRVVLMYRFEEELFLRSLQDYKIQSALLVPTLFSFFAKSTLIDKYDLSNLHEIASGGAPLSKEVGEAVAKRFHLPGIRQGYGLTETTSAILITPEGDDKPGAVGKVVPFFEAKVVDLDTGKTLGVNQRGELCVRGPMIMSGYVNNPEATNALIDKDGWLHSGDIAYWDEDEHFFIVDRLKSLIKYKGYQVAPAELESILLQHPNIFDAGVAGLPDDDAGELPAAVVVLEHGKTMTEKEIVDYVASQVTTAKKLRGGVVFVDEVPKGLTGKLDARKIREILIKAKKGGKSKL
SMILES,EC50 [3],EC50 (Protein RecA),AC50 [9],other results
O=S(=O)(c1ccc(F)cc1)N(Cc1ccco1)Cc1cc2ccccc2nc1O,,,,EC50 [1]: > 112 µM (not active); EC50 [2]: > 112 µM (not active)
CCOC(=O)c1cnn(-c2ccccc2)c1-n1cccc1,> 195 µM (not active),,,
COc1cc(OC)c2c(c1)OCC1CON(C)C21 (centres undefined),> 195 µM (not active),,,
Cc1c2cnn(CC(=O)NC3CCCC3)c(=O)c2c(C)n1Cc1ccccc1,,,,IC50 [4]: > 47.1 µM (inactive); EC50 [5]: > 53 µM (inactive); EC50 [6]: 51.2 µM (active)
O=[N+]([O-])c1ccc(N2CCCC(C(F)(F)F)C2)c2ccncc12 (centres undefined),,10.8 µM (active),> 380 µM (inactive),EC50 [7]: > 120 µM (not active); EC50 [8]: > 120 µM (not active); EC50 [10]: > 120 µM (not active)
O=C(CSc1ccccc1)Nc1cccc(NC(=O)c2ccco2)c1,> 195 µM (not active),,,
CCc1nn2c(=O)c(S(=O)(=O)Nc3cccc(F)c3)c(C)nc2s1,> 195 µM (not active),,,
CCCN(Cc1ccccc1)C(=S)NC(=O)c1ccccc1[N+](=O)[O-],> 195 µM (not active),,,
N#C/C(=C(/O)Cc1cccc2ccccc12)c1nc2ccccc2s1,,,,IC50 [4]: 2.49 µM (active); EC50 [11]: 2.91 µM (active); EC50 [5]: 3.14 µM (active); EC50 (Streptococcus): 3.17 µM (active)
S=C(Nc1ccc(Nc2ccccc2)cc1)NN1CCOCC1,> 195 µM (not active),,,EC50 (H4): > 120 µM (not active); EC50 [12]: > 120 µM (not active); EC50 [6]: 56.1 µM (active)
CC(=O)N1C(=O)C2(C(C#N)=C(N)Oc3c2c(C)nn3-c2ccccc2)c2ccccc21 (centres undefined),,2.28 µM (active),4.34 µM (active),
O=C1CC(NC(=O)C(F)(F)F)=NN1c1ccccc1,,5.51 µM (active),6.86 µM (active),
COc1cc(C=C(c2nc3ccccc3s2)c2nc3ccccc3s2)ccc1O,,5.08 µM (active),> 380 µM (inactive),
Cc1ccc(SCc2n[nH]c3c2C(c2ccco2)C(C#N)=C(N)O3)cc1 (centres undefined),,6.19 µM (active),< 0.018 µM (active),
O=Cc1c(-c2ccc(Cl)cc2)oc2ccc(O)cc12,18 µM (active),,,
Cc1ccc(OC(=O)c2ccc([N+](=O)[O-])cc2Cl)cn1,,4.92 µM (active),11.2 µM (active),
O=S(=O)(c1ccccc1)N1CN2CCN(C2)C1,> 195 µM (not active),,,
C[C@H]1COC(=O)[C@H](NC(=O)OCC2c3ccccc3-c3ccccc32)C/C=C\C[C@H](CC(=O)N(CCO)Cc2ccccc2)C(=O)N1,,,,AC50 [13]: 6.08 µM (active); AC50 [14]: 5.76 µM (active)
CC(C)(C)c1ccc(C(=O)NC(=S)N2CCCC2)cc1,> 195 µM (not active),,,
CC1C/C(=N/Nc2nc3ccccc3[nH]2)CC(C)(C)C1 (centres undefined),> 195 µM (not active),,,
CC1=C(C)/C(=N/OC(=O)c2cccc([N+](=O)[O-])c2)C=CC1=O,,0.418 µM (active),> 380 µM (inactive),EC50 [15]: 9.44 µM (active); EC50 [16]: 9.24 µM (active)
COc1cccc(/C=N/NC(=O)c2cnccn2)c1,> 195 µM (not active),,,
